The values below come from the supplement of paper PMC11208160.
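Further: IS621 recombinase and bridge RNA in Escherichia coli cells.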

This series can be described thus: recombinant barcode read abundance after kanamycin selection (control-corrected) (log10(CPM+1)); higher = more efficient recombination; sequences stand for … in AGTGCAGAGAAAATCGGCCAGTTTTCTCTGCCTGCAGTCCGCATGCCGT…AGATTTATGCAGCGGACTGCCTTTCTCCCAAAGTGATAAACCGGACAGTATCATGGACCGGTTTTCCCGGTAATCCGTATTTGCAAGGTTGGTTTCACT; site = the 11-nt target. Here is the method:
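Pooled E. coli target-specificity screen for the IS621 bridge recombinase. Each library plasmid pairs an 11-nt target (CT core) with a bridge RNA whose target-binding loop (9-nt LTG + 4-nt RTG) is reprogrammed; the rest of the 177-nt WT IS621 bridge RNA scaffold is fixed. The plasmid is co-electroporated with a WT donor plasmid; recombinase is induced with 0.1 mM IPTG and recombinants are selected on kanamycin. Recombinant barcodes are sequenced, converted to CPM, averaged over two biological replicates and corrected by the unselected control CPM. Molecule = full bridge RNA written as DNA: LTG = specificity nt 1-9, RTG = reverse complement of specificity nt 8-11, in the WT scaffold.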
In the case of “AAGAAAGCTTGGGTTCTAACCTGTTGCCT (site AAGAAAGCTAG)”, the “recombinant barcode read abundance (log10)” value was determined as 1.82.

With “AAGAAAGCTTGGGTTCTAACCTGTTGCCT (site AAGACAGCTAG)”, the “recombinant barcode read abundance (log10)” value came out at 0.0854. The value for “AAGAAAGCTTGGGTTCTAACCTGTTGCCT (site AAGAGAGCTAG)” was 0.113; that for “AAGAAAGCTTGGGTTCTAACCTGTTGCCT (site AAGATAGCTAG)” was 0.464; that for “AAGACCTCTTGGGTTCTAACCTGTTGCCT (site AAGACCTCTAG)” was 1.67.

Turning to “AAGACCTCTTGGGTTCTAACCTGTTGCCT (site TAGACCTCTAG)”, the “recombinant barcode read abundance (log10)” value was determined as 1.29. For “AAGATACCTTGGGTTCTAACCTGTTGCCT (site AAGATACCTAG)”, the “recombinant barcode read abundance (log10)” value was 2.23. The value for “AAGATACCTTGGGTTCTAACCTGTTGCCT (site ATGATACCTAG)” was 0.0427.

Consider “AAGCACTCTTGGGTTCTAACCTGTTGCCT (site AAGCAATCTAG)”, for which the “recombinant barcode read abundance (log10)” value turned out to be 0.195. In the case of “AAGCACTCTTGGGTTCTAACCTGTTGCCT (site AAGCACTCTAG)”, the “recombinant barcode read abundance (log10)” value worked out at 2.58. As for “AAGCACTCTTGGGTTCTAACCTGTTGCCT (site AAGCAGTCTAG)”, the figure is 0.107. As to “AAGCACTCTTGGGTTCTAACCTGTTGCCT (site AAGCATTCTAG)”, the “recombinant barcode read abundance (log10)” value is 0. The value for “AAGCAGTCTTGGGTTCTAACCTGTTGCCT (site AAGCAATCTAG)” was 0.44; that for “AAGCAGTCTTGGGTTCTAACCTGTTGCCT (site AAGCACTCTAG)” was 0.206. With “AAGCAGTCTTGGGTTCTAACCTGTTGCCT (site AAGCAGTCTAG)”, the “recombinant barcode read abundance (log10)” value was found to be 2.5. For the sequence “AAGCAGTCTTGGGTTCTAACCTGTTGCCT (site AAGCATTCTAG)”, the “recombinant barcode read abundance (log10)” value is 0.162. As for “AAGCATCCTTGGGTTCTAACCTGTTGCCT (site AAGCATCCTAG)”, the figure is 1.07; as for “AAGCATCCTTGGGTTCTAACCTGTTGCCT (site ACGCATCCTAG)”, 0.192. “AAGCATCCTTGGGTTCTAACCTGTTGCCT (site AGGCATCCTAG)”: the “recombinant barcode read abundance (log10)” value was found to be 0.358. With “AAGCATCCTTGGGTTCTAACCTGTTGCCT (site ATGCATCCTAG)”, the “recombinant barcode read abundance (log10)” value amounted to 0.00873.

Turning to “AAGCATTCTTGGGTTCTAACCTGTTGCCT (site AAGCAATCTAG)”, the “recombinant barcode read abundance (log10)” value was 0.379. With “AAGCATTCTTGGGTTCTAACCTGTTGCCT (site AAGCACTCTAG)”, the “recombinant barcode read abundance (log10)” value amounted to 0.111.

Take “AAGCATTCTTGGGTTCTAACCTGTTGCCT (site AAGCAGTCTAG)”: the “recombinant barcode read abundance (log10)” value was found to be 0.254. For “AAGCATTCTTGGGTTCTAACCTGTTGCCT (site AAGCATTCTAG)”, the “recombinant barcode read abundance (log10)” value stood at 1.81. As for “AAGCGCTCTTGGGTTCTAACCTGTTGCTG (site AAGCGCTCTCA)”, the “recombinant barcode read abundance (log10)” value came out at 2.39. As for “AAGCGCTCTTGGGTTCTAACCTGTTGCTG (site TTCTATGCTAC)”, the figure is 0.542; as for “AAGCGTACTTGGGTTCTAACCTGTTGCCT (site AAGCGTACTAG)”, 1.92; as for “AAGCGTACTTGGGTTCTAACCTGTTGCCT (site AAGCGTCCTAG)”, 0.141.

As for “AAGCGTACTTGGGTTCTAACCTGTTGCCT (site AAGCGTGCTAG)”, the “recombinant barcode read abundance (log10)” value was determined as 0.0421. With “AAGCGTACTTGGGTTCTAACCTGTTGCCT (site AAGCGTTCTAG)”, the “recombinant barcode read abundance (log10)” value came out at 0.128. As to “AAGCGTGCTTGGGTTCTAACCTGTTGCCT (site AAGCGTACTAG)”, the “recombinant barcode read abundance (log10)” value came to 1.38. For the sequence “AAGCGTGCTTGGGTTCTAACCTGTTGCCT (site AAGCGTCCTAG)”, the “recombinant barcode read abundance (log10)” value was determined as 0.197. Take “AAGCGTGCTTGGGTTCTAACCTGTTGCCT (site AAGCGTGCTAG)”: the “recombinant barcode read abundance (log10)” value was determined as 1.7.

In the case of “AAGCGTGCTTGGGTTCTAACCTGTTGCCT (site AAGCGTTCTAG)”, the “recombinant barcode read abundance (log10)” value is 0.216. With “AAGCGTTCTTGGGTTCTAACCTGTTGCCT (site AAGCGTACTAG)”, the “recombinant barcode read abundance (log10)” value turned out to be 0.0209. Consider “AAGCGTTCTTGGGTTCTAACCTGTTGCCT (site AAGCGTCCTAG)”, for which the “recombinant barcode read abundance (log10)” value is 0.111.

Turning to “AAGCGTTCTTGGGTTCTAACCTGTTGCCT (site AAGCGTGCTAG)”, the “recombinant barcode read abundance (log10)” value turned out to be 0.0909.
